The results in this text go back to patent US20110009435A1, “HETERO BICYCLIC CARBOXAMIDE DERIVATIVES AND THEIR PHARMACEUTICAL USE AND COMPOSITIONS” (Pfizer, Inc., priority 2007, published 2011).

Holding throughout (format): biochemical
Assay [1] concerns the target T1, Human recombinant MMP-7 (Homo sapiens, UniProt P09237).
T1 construct: 07/CD; made in house
T1 sequence (P09237 95-267): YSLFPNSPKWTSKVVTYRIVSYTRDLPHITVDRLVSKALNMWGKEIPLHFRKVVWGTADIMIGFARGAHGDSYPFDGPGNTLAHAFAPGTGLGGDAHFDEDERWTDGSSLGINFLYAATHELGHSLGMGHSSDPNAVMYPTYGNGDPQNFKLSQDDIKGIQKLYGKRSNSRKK
Put plainly: In vitro MMP inhibition assay, MMP-7 (fluorogenic peptide substrate cleavage, Ki). The conditions noted are these: human MMP-7 (CD); read-out: hMMP Ki 07/CD. On the procedure:
(§1) Matrix Metalloproteinase inhibitor compounds were analyzed in in vitro MMP Inhibition assays to determine their ability to inhibit the MMP cleavage of peptide substrates. Inhibition constants (Ki) were calculated from the assayed compound-MMP interactions.
(§2) Human recombinant MMP-1, MMP-2, MMP-3, MMP-7, MMP-9, MMP-12, MMP-13, MMP-14 and MMP-15 were used in these assays. The enzymes are prepared following known laboratory procedures. Protocols for the preparation and use of these enzymes are available in the scientific literature. See, e.g., Enzyme Nomenclature (Academic Press, San Diego, Calif., 1992) and the citations therein. See also Frije et al., J. Biol. Chem., 26(24), 16766-73 (1994).
The MMP-7 cDNA may be used to express the enzyme in E. coli inclusion bodies. Then the enzyme is solubilized in urea, purified on a preparative […] reverse phase HPLC column, and refolded in the presence of zinc acetate and purified for use. […]
The inhibitors are analyzed using a single low enzyme concentration with a single substrate concentration fixed at or below the Km. […] Apparent inhibitory constants are determined by non-linear regression of reaction velocity as a function of inhibitor and enzyme concentration using Morrison's equation, as described by Kuzmic, Anal. Biochem. 286, 45-50 (2000). […]

Assay [2] addresses T2, catalytic domain of human recombinant MMP-3 (Homo sapiens, UniProt P08254).
T2 construct: made in house
Briefly: In vitro MMP inhibition assay, MMP-3 catalytic domain (fluorogenic peptide substrate cleavage, Ki). The conditions noted are these: human MMP-3, catalytic domain (CD); read-out: hMMP Ki 03/CD. Put shortly:
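The MMP-3 catalytic domain was expressed in E. coli and refolded with zinc. It was preincubated with inhibitor for 1 hr at room temperature in MES buffer pH 6.0 with 1% DMSO, then 4 μM Mca/Dnp fluorogenic peptide was added (ex 330/em 420 nm). Ki came from Morrison-equation fits of rates, with substrate at or below Km and no substrate correction.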

Assay [3] concerns the target T3, Human recombinant MMP-12 (Homo sapiens, UniProt P39900).
T3 construct: The catalytic domain of MMP-12 and MMP-15 enzymes were purchased commercially for these assays; purchased
Briefly: In vitro MMP inhibition assay, MMP-12 catalytic domain (fluorogenic peptide substrate cleavage, Ki). The conditions noted are these: human MMP-12, catalytic domain (CD); read-out: hMMP Ki 12/CD. On the procedure: as §1, §2
The catalytic domain of MMP-12 and MMP-15 enzymes were purchased commercially for these assays.
The fluorogenic, methoxycoumarin-containing polypeptide substrate MCA-ArgProLeuGlyLeuDpaAlaArgGluArgNH2 was used as the MMP substrate in the MMP inhibition assays for human recombinant MMP-1, MMP-2, MMP-7, MMP-9, MMP-12, MMP-13, MMP-14 and MMP-15. Here, “MCA” is 7-methoxycoumarin-4-yl acetyl and “Dpa” is 3-(2,4-dinitrophenyl)-L-2,3-di-aminopropionyl group. In the absence of MMP inhibitory activity, the substrate is cleaved at the Gly-Leu peptide bond. The cleavage separates the highly fluorogenic peptide from the 2,4-dinitrophenyl quencher, resulting in an increase of fluorescent intensity.
For the human MMP-1, MMP-2, MMP-7, MMP-9, MMP-12, MMP-13, MMP-14 and MMP-15 assays, dilutions of the inhibitors (or salts thereof) were prepared in 100% dimethyl sulfoxide (DMSO). The stock solutions were diluted in Buffer A (100 mM Tris-HCl, 100 mM NaCl, 10 mM CaCl2, 0.005% polyoxyethylene 23 lauryl ether, pH 7.5) to obtain solutions with different compound concentrations, i.e., assay solutions with different concentrations of the assayed MMP inhibitory compound in 1% DMSO. The experiment controls contained the same amount of Buffer A/DMSO as the assayed sample, but contained no inhibitor.
To determine Ki, the inhibitor samples are incubated at room temperature for 1 hr in the presence of enzyme and then 4 μM of appropriate MMP substrate was added, and samples were analyzed on a Tecan SpectraFlour Plus plate reader. The excitation wavelength is 330 nm, and the emission (fluorescence) wavelength is 420 nm. In the absence of MMP inhibitory activity, the substrate is cleaved at the Gly-Leu bond resulting in an increase of relative fluorescence. Inhibition is observed as a reduced rate of increase in relative fluorescence.
The inhibitors are analyzed using a single low enzyme concentration with a single substrate concentration fixed at or below the Km. This protocol is a modification of method by Knight et al., FEBS Lett., 296(3), 263-266 (1992). Apparent inhibitory constants are determined by non-linear regression of reaction velocity as a function of inhibitor and enzyme concentration using Morrison's equation, as described by Kuzmic, Anal. Biochem. 286, 45-50 (2000). Modifications were made in the non-linear regression method to allow a common control reaction rate and effective enzyme concentration to be shared between all dose-response relationships on a given assay plate. Since the substrate concentration was chosen to be at or below the Km, the apparent Ki's from this analysis were reported as Ki's without correction for the influence of substrate.

T3 sequence (P39900 106-263 limits assumed): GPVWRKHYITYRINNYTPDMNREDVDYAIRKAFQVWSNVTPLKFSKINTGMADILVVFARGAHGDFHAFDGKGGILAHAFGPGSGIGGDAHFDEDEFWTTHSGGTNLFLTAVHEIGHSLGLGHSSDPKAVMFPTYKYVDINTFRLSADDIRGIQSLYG
T2 sequence (P08254 100-272 limits assumed): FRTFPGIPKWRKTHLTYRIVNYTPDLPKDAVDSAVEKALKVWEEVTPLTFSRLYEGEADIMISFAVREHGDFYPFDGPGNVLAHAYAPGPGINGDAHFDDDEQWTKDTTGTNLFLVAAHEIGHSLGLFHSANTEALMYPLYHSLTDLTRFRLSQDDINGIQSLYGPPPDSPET

On to `COc1cccc(CNC(=O)c2nc3ccc(F)c(OCCC4CCN(C(=O)CO)CC4)c3c(=O)[nH]2)c1` [Example 34, 6-fluoro-5-[2-(1-glycoloylpiperidin-4-yl)ethoxy]-N-(3-methoxybenzyl)-4-oxo-3,4-dihydroquinazoline-2-carboxamide], for which the Ki was greater than 10 µM in assay [1], 1.57 µM in assay [2] and 6.53 µM in assay [3].
